Measurements from patent US20180057547A1, “DIAGNOSTIC AND THERAPEUTIC EPITOPE, AND TRANSGENIC PLANT” (OXFORD UNIVERSITY INNOVATION LIMITED, priority 1999, published 2018).
Entries after “also recorded” stand apart in the source; their conditions may differ.

Assays:
[1] = test system: PBMC from coeliac subjects; assay: IFNγ ELISPOT with PBMC of coeliac disease subjects after bread/gluten challenge; type: cell-based, human; conditions: for % bioactivity compared to unmodified A-gliadin 57-73 QE65 / greater bioactivity than the parent peptide: 50 mcg/ml; for % bioactivity compared to unmodified A-gliadin 57-73 QE65: PBMC from 8 subjects, mean response as % A-G 57-73 QE65 mean response, blank 7.1%; for Mean response as % of the response to the immunodominant epitope: 57-73 A-gliadin epitope substituted at position 65, synthetic peptides 50 μg/ml, 3 coeliac subjects, 6 days after commencing gluten challenge; for % agonist.: agonist activity compared to A-gliadin 57-73 QE65 as shown in Table 9; for ELISpot response as % A-gliadin 57-73 QE65, E-substituted: glutamate-substituted peptide; for ELISpot response as % A-gliadin 57-73 QE65, E-substituted / ELISpot response as % A-gliadin 57-73 QE65, Wildtype + tTG / ELISpot response as % A-gliadin 57-73 QE65, Wild type: 25 mcg/ml, 4 subjects, blank 5 (1) %; for ELISpot response as % A-gliadin 57-73 QE65, Wildtype + tTG: tTG-treated wild type peptide; for ELISpot response as % A-gliadin 57-73 QE65, Wild type: unmodified gliadin peptide; for Elisopt response TG: peptide treated with transglutaminase; for Elisopt response TG / Elisopt response No TG: mean (range), 3 subjects, as in Example 2; for Elisopt response No TG: peptide without transglutaminase treatment; for greater bioactivity than the parent peptide: parent A-gliadin 57-73 QE65
[2] = test system: PBMC from coeliac volunteers; assay: Antagonism of A-gliadin 57-73 QE65 interferon gamma ELISPOT response (simultaneous addition of peptide); type: cell-based, human
Description: Simultaneous addition of peptide (50 μg/ml) or buffer and A-gliadin 57-73 QE65 (10 μg/ml) in IFNgamma ELISPOT using PBMC from coeliac volunteers 6 days after commencing 3 day gluten challenge (n=5). Results were expressed as response with peptide plus A-G 57-73 QE65 (mean of duplicates) as % response with buffer plus A-G 57-73 QE65 (mean of 20 replicates). (See Table 9).

[3] = test system: gluten-specific T cell clones and lines; conditions: from original publications; iTCC intestinal T cell clone, iTCL intestinal polyclonal T cell line, bTCC peripheral blood T cell clone; NS not given; cited from earlier work
[4] = test system: PBMC from newly diagnosed coeliac subjects; assay: Interferon gamma ELISpot with PBMC of newly diagnosed coeliac subjects, gluten challenge after short GFD; type: cell-based, human; conditions: 25 mcg/ml
Description: Newly diagnosed DQ2+ coeliac subjects were recruited from the gastroenterology outpatient service. PBMC were prepared and tested in interferon gamma ELISpot assays before subjects commenced GFD, and at one or two weeks after commencing GFD. In addition, gluten challenge (3 days consuming 4 slices standard white bread, 200 g/day) was performed at one or two weeks after starting GFD. PBMC were prepared and assayed on day six are after commencing gluten challenge. A-gliadin 57-73 QE65 (A), P04724 84-100 QE92 (B) (alone and combined) and A-gliadin 57-73 QP65 (P65) (non-bioactive variant, see above) (all 25 mcg/ml) were assessed.

[5] = substituted variant 50 μg/ml plus A-gliadin 57-73 QE65 10 μg/ml, n=5
[6] = coeliacs who had followed GFD for only one week
[7] = gluten challenge 2 weeks after commencing GFD, compared with A-gliadin 57-73 QP65 and blank
[8] = naturally occurring polymorphisms of A-gliadin 57-73 QE65, 50 μg/ml plus A-gliadin 57-73 QE65 10 μg/ml

## N[C@@H](CS)C(=O)O [C65]
[1]
  % bioactivity compared to unmodified A-gliadin 57-73 QE65: 42%
  Mean response as % of the response to the immunodominant epitope: 62%

## N[C@@H](CC(=O)O)C(=O)O [D65]
[1]
  % bioactivity compared to unmodified A-gliadin 57-73 QE65: 95%
  Mean response as % of the response to the immunodominant epitope: 65%

## N[C@@H](Cc1c[nH]cn1)C(=O)O [H65]
[2]; [5]
  % Inhibit. of A-gliadin 57-73 QE65 interferon gamma ELISpot response: 20%
[1]
  % bioactivity compared to unmodified A-gliadin 57-73 QE65: 26%
  % agonist.: 16%
[1]; listed as Histidine
  Mean response as % of the response to the immunodominant epitope: 8%

## NCCCC[C@H](N)C(=O)O [K65]
[2]; [5]
  % Inhibit. of A-gliadin 57-73 QE65 interferon gamma ELISpot response: 15%
[1]
  % bioactivity compared to unmodified A-gliadin 57-73 QE65: 8%
  % agonist.: 8%
[1]; listed as Lysine
  Mean response as % of the response to the immunodominant epitope: 4%

## CC(C)C[C@H](N)C(=O)O [L65]
[2]; [5]
  % Inhibit. of A-gliadin 57-73 QE65 interferon gamma ELISpot response: 20%
[1]
  % bioactivity compared to unmodified A-gliadin 57-73 QE65: 16%
  Mean response as % of the response to the immunodominant epitope: 33%
  % agonist.: 26%

## N=C(N)NCCC[C@H](N)C(=O)O [R65]
[2]; [5]
  % Inhibit. of A-gliadin 57-73 QE65 interferon gamma ELISpot response: 13%
[1]
  % bioactivity compared to unmodified A-gliadin 57-73 QE65: 11%
  % agonist.: 11%
[1]; listed as Arginine
  Mean response as % of the response to the immunodominant epitope: 1%

## C[C@@H](O)[C@H](N)C(=O)O [T65]
[2]; [5]
  % Inhibit. of A-gliadin 57-73 QE65 interferon gamma ELISpot response: 28%
[1]
  % bioactivity compared to unmodified A-gliadin 57-73 QE65: 7%
  Mean response as % of the response to the immunodominant epitope: 55%
  % agonist.: 19%

## N[C@@H](Cc1ccc(O)cc1)C(=O)O [Y65]
[2]; [5]
  % Inhibit. of A-gliadin 57-73 QE65 interferon gamma ELISpot response: 12%
[1]; listed as Tyrosine
  Mean response as % of the response to the immunodominant epitope: 8%
[1]
  % agonist.: 7%

## GQQGYYPTSPQQSGQ
[3]
  Frequency: 1/1 (iTCC)

## LGQQQPFPPQQPYPQPQPF
[3]
  Frequency: 1/23 (bTCC)

## PQLPYPQPELPYPQPQP [P04724 84-100 QE92, glutamate-substituted polymorphism GDA4_WHEAT P04724 84-100 (K)]
[4]; [6]
  responses after gluten challenge: did not substantially enhance responses
[4]; [7]
  responses after gluten challenge: did induce responses
[1]
  ELISpot response as % A-gliadin 57-73 QE65, E-substituted: 69 (20) %
  ELISpot response as % A-gliadin 57-73 QE65, Wildtype + tTG: 80 (17) %
  ELISpot response as % A-gliadin 57-73 QE65, Wild type: 14 (4) %

## PQLPYPQPQLPYPQPQP
[1]
  Elisopt response TG: 109 (41-152)
  Elisopt response No TG: 3 (0-7)

## PQPELPYPQPELPY [reference compound]
[3]
  Frequency: 11/17 (iTCL)
[1]
  ELISpot response as % A-gliadin 57-73 QE65, E-substituted: 48 (9) %
  ELISpot response as % A-gliadin 57-73 QE65, Wildtype + tTG: 53 (8) %
  ELISpot response as % A-gliadin 57-73 QE65, Wild type: 13 (6) %

## PQPQPFLPELPYPQPQS [P04727 79-95 QE65, glutamate-substituted polymorphism GDA7_WHEAT P04727 79-95 (M)]
[2]; [8]
  % Inhibit. of A-gliadin 57-73 QE65 interferon gamma ELISpot response: 6%

## PQPQPFLPQLPYPQPQS
[1]
  Elisopt response TG: 21 (11-33)
  Elisopt response No TG: 10 (0-30)

## PQPQPFPPELPYPQPPP [P04726 82-98 QE90, glutamate-substituted polymorphism GDA6_WHEAT P04726 82-98 (P)]
[2]; [8]
  % Inhibit. of A-gliadin 57-73 QE65 interferon gamma ELISpot response: 5%

## PQPQPFPPELPYPQPQS [P04725 82-98 QE90, glutamate-substituted polymorphism GDA5_WHEAT P04725 82-98 (N)]
[2]; [8]
  % Inhibit. of A-gliadin 57-73 QE65 interferon gamma ELISpot response: 19%

## PQPQPFPPELPYPQTQP [P04723 77-93 QE85, glutamate-substituted polymorphism GDA3_WHEAT P04723 77-93 (O)]
[2]; [8]
  % Inhibit. of A-gliadin 57-73 QE65 interferon gamma ELISpot response: 10%

## PQPQPFPPQLPYPQPPP
[1]
  Elisopt response TG: 19 (11-33)
  Elisopt response No TG: 10 (0-30)

## PQPQPFPPQLPYPQPQS
[1]
  Elisopt response TG: 24 (11-43)
  Elisopt response No TG: 17 (0-40)

## QLQPFLQPELPYSQPQP [Q41509 77-93 QE85, glutamate-substituted polymorphism Q41509 77-93]
[2]; naturally occurring polymorphisms of A-gliadin 57-73 QE65, 50 μg/ml plus A-gliadin 57-73 QE65 10 μg/ml, polymorphism SEQ ID NO 71
  % Inhibit. of A-gliadin 57-73 QE65 interferon gamma ELISpot response: 11%
[2]; naturally occurring polymorphisms of A-gliadin 57-73 QE65, 50 μg/ml plus A-gliadin 57-73 QE65 10 μg/ml, polymorphism SEQ ID NO 76
  % Inhibit. of A-gliadin 57-73 QE65 interferon gamma ELISpot response: 6%

## QLQPFLQPQLPYSQPQP
[1]
  Elisopt response TG: 3 (0-7)
  Elisopt response No TG: 0 (0-1)

## QLQPFPQPELPYPQPQS (listed as Triticum sp.) [A-gliadin 57-73 QE65]
[4]; [6]
  responses after gluten challenge: did not substantially enhance responses
[4]; [7]
  responses after gluten challenge: did induce responses
[1]
  Mean response as % of the response to the immunodominant epitope: 100%
  ELISpot response as % A-gliadin 57-73 QE65, E-substituted: 100%
  Elisopt response TG: 100 (100)
  ELISpot response as % A-gliadin 57-73 QE65, Wildtype + tTG: 87 (7) %
  ELISpot response as % A-gliadin 57-73 QE65, Wild type: 18 (7) %
[1]; PBMC after 3 day bread/gluten challenge
  IFNγ ELISPOT response (result in words): induced maximal responses; also recorded: most potent gliadin peptide for induction of interferon gamma
[1]; in vivo (gluten challenge), DQ2
  Frequency: 11/12 in vivo

## QLQPFPQPELPYSQPQP [P02863 77-93 QE85, glutamate-substituted polymorphism GDA0_WHEAT P02863 77-93 (F)]
[2]; [8]
  % Inhibit. of A-gliadin 57-73 QE65 interferon gamma ELISpot response: 6%

## QLQPFPQPELSYSQPQP [Gliα 3-5 57-73 QE65, glutamate-substituted polymorphism Gli alpha 3,4, 5 57-73 (I)]
[2]; [8]
  % Inhibit. of A-gliadin 57-73 QE65 interferon gamma ELISpot response: 7%

## QLQPFPQPQLPYPQPQL
[1]
  Elisopt response TG: 83 (74-97)
  Elisopt response No TG: 19 (0-33)

## QLQPFPQPQLPYPQPQP
[1]
  Elisopt response TG: 83 (61-113)
  Elisopt response No TG: 12 (0-20)

## QLQPFPQPQLPYSQPQP
[1]
  Elisopt response TG: 53 (44-67)
  Elisopt response No TG: 5 (1-7)

## QLQPFSQPQLPYSQPQP
[1]
  Elisopt response TG: 2 (0-7)
  Elisopt response No TG: 0 (0-0)

## QPQPFPPPELPYPQTQP [Gliα 1,6 58-74 QE66, glutamate-substituted polymorphism Gli alpha 1, 6 58-74 (J)]
[2]; [8]
  % Inhibit. of A-gliadin 57-73 QE65 interferon gamma ELISpot response: 11%

## QQLPQPEQPQQSFPEQERPF [reference compound]
[1]
  ELISpot response as % A-gliadin 57-73 QE65, E-substituted: 10 (5) %
  ELISpot response as % A-gliadin 57-73 QE65, Wildtype + tTG: 18 (7) %
  ELISpot response as % A-gliadin 57-73 QE65, Wild type: 9 (3) %

## QQYPSGEGSFQPSQENPQ [reference compound]
[1]
  ELISpot response as % A-gliadin 57-73 QE65, E-substituted: 14 (8) %
  ELISpot response as % A-gliadin 57-73 QE65, Wildtype + tTG: 9 (3) %
  ELISpot response as % A-gliadin 57-73 QE65, Wild type: 10 (3) %

## Y61: A-gliadin 57-73 QE65 variant, Y at position 61 (QLQPYPQPELPYPQPQS)
[1]
  % bioactivity compared to unmodified A-gliadin 57-73 QE65: 129%
  greater bioactivity than the parent peptide: 30%

## Y70: A-gliadin 57-73 QE65 variant, Y at position 70 (QLQPFPQPELPYPYPQS)
[1]
  % bioactivity compared to unmodified A-gliadin 57-73 QE65: 129%
  greater bioactivity than the parent peptide: 30%
